Patent US20240239750A1, “PHARMACEUTICAL PREPARATION” (Aerie Pharmaceuticals, Inc., priority 2021, published 2024)
“And” between values parts separate entries of the source, which are not always exact repeats. Identical values can stand only once. Blank lines part the entries; values can stand above or below the compound they belong to.

Columns and labels:
Type in all cases: physicochemical
TG/DSC thermal analysis = settings: for Enthalpy / Onset Temperature / Signal Temperature: TG/DSC signal of Compound 1 mono-tosylate solid form; for onset of thermal decomposition: TG/DSC, 10° C./min
Protocol: (§1) Thermogravimetric Analysis/Differential Scanning Calorimetry (TGA/DSC): Approximately, 5-10 mg of material was added into a pre-tared open aluminum pan and loaded into a TA Instruments Discovery SDT 650 Auto—Simultaneous DSC and held at room temperature. The sample was then heated at a rate of 10° C./min from 30° C. to 350° C. during which time the change in sample weight was recorded along with the heat flow response (DSC). Nitrogen was used as the sample purge gas, at a flow rate of 200 cm^3/min.
as §1, with “Thermogravimetric/Differential Thermal Analysis (TG/DTA):” for “Thermogravimetric Analysis/Differential Scanning Calorimetry (TGA/DSC):”, “cm^3/min. […]” for “cm^3/min.”

[1] = Polymorph stability study (competitive slurrying)
Protocol: To prepare solutions saturated with Compound 1 mono-tosylate for competitive slurrying, 2×100 mg (0.20 mmol) amorphous Compound 1 mono-tosylate was weighed into 2×4 mL vials. To each vial, 500 μL of ethanol was added and the vials were manually shaken for a few seconds. Complete dissolution was noted. A further about 20 mg of amorphous Compound 1 mono-tosylate was added to each vial and the vials were agitated for about 3 hours: one vial at ambient temperature and one vial at 60° C. After about 3 hours, both were solutions. More amorphous Compound 1 mono-tosylate (about 30 mg) was added to each vial and they were shaken at their respective temperatures again for about another hour. Both appeared to be slurries. To remove the excess solids, the slurries were filtered centrifugally and the mother liquors each placed into separate, clean vials. […] After 48 hours, the solids were recovered via centrifugal filtration and analyzed by XRPD. The XRPD plate containing the solids was then dried at 40° C. for 2 hours and re-analyzed.
To prepare a solution saturated with amorphous Compound 1 mono-tosylate for competitive slurrying, 50 mg (0.10 mmol) of amorphous Compound 1 mono-tosylate was weighed into a 4 mL vial. […] After 72 hours, the solids were recovered via centrifugal filtration and analyzed by XRPD.

[2] = Drying of solids and re-analysis by XRPD (form conversion)
Protocol: Any new solids which produced patterns by XRPD were dried at 40° C. for 24 hours before being analyzed again. Potential New Patterns were also analyzed by ^1H NMR, PLM and TG/DSC.
To prepare crystalline forms 1 and 4 of Compound 1 mono-tosylate, 2×500 mg (1.01 mmol) of amorphous Compound 1 mono-tosylate was placed into 20 ml vials. To each of these vials, 12 ml of solvent (dichloromethane for crystalline form 1 and tetrahydrofuran for crystalline form 4) was added to prepare slurries. Volumes/mass used were a direct scale-up from the primary screen discussed above. The slurries were thermally cycled (with agitation) between ambient temperature and 40° C. (4-hour cycles at each condition) for 72 hours. Post-thermal cycling, an aliquot of solid was removed from each vial using a micro-spatula and analyzed by XRPD to confirm that the desired form was produced. The remainder of each slurry was then filtered by Buchner filtration. The solids were dried on the filter bed for no longer than 1 minute before being transferred to pre-weighed 20 ml vials. The solids were then dried under vacuum at ambient temperature for 2 hours. Another aliquot of each solid was analyzed by XRPD post-drying. […] As such, the solids were transferred to an oven at 40° C. (ambient pressure) and subsequently dried for approximately 18 hours. […] Crystalline form 1 yield: 86.1%. Crystalline form 4 yield: 84.2%.

[3] = 7 day stability study of solid forms (XRPD, HPLC); settings: stored 7 days; 40° C./75% RH (open vial) according to b80 and FIG. 14 legend
Protocol: Crystalline form 5 of Compound 1 mono-tosylate was obtained during a 7 day stability study for crystalline forms 1 and 4. In the study, 3×20 mg (0.04 mmol) of crystalline forms 1 and 4, and amorphous Compound 1 mono-tosylate, were individually weighted into 1.5 mL vials and stored under the following conditions for 7 days: • (i) 40° C./75% relative humidity (RH) (open vial); • (ii) 80° C./ambient humidity (sealed vial); and • (iii) Ambient conditions (open vial).
After 7 days, any remaining solids recovered were analyzed by XRPD to assess form purity and HPLC changes in chemical purity. […] More crystalline form 5 was prepared by storing 100 mg of crystalline form 4 […] for approximately 4 days.

[4] = listed as Amorphous, mono-tosylate salt
[5] = listed as Form 6, mono-tosylate salt

SMILES: Cc1ccc(S(=O)(=O)O)cc1.NC[C@@H](C(=O)Nc1ccc2cnccc2c1)c1ccc(CO)cc1 [amorphous Compound 1 mono-tosylate, alpha-(aminomethyl)-4-(hydroxymethyl)-N-6-isoquinolinyl-(S)-benzeneacetamide mono-tosylate salt]
- Enthalpy (TG/DSC thermal analysis; [4]): 94.1 J/g
- Onset Temperature (TG/DSC thermal analysis; [4]): 184.0 °C
- Signal Temperature (TG/DSC thermal analysis; [4]): 202.1 °C
- onset of thermal decomposition (TG/DSC thermal analysis; listed as Amorphous Compound 1 Mono-Tosylate, mono-tosylate salt): event associated with decomposition observed (onset 184° C.)
- onset of thermal decomposition (TG/DSC thermal analysis; listed as amorphous Compound 1, mono-tosylate salt): 184 °C
- onset of thermal decomposition (TG/DSC thermal analysis; listed as amorphous material, mono-tosylate salt): about 184 °C

SMILES: Cc1ccc(S(=O)(=O)O)cc1.NC[C@@H](C(=O)Nc1ccc2cnccc2c1)c1ccc(CO)cc1 [crystalline form 1, alpha-(aminomethyl)-4-(hydroxymethyl)-N-6-isoquinolinyl-(S)-benzeneacetamide mono-tosylate salt]
- form recovered (XRPD) after competitive slurrying ([1]; forms 1, 4 and 5 together in saturated ethanol, 48 hours, ambient temperature and 60° C.): New crystalline form 6 was observed
- onset of thermal decomposition (TG/DSC thermal analysis; mono-tosylate salt): 189 °C

Continued, in another order:

- form conversion on drying ([2]; drying at 40° C. for approximately 24 hours): convert to crystalline form 4
- form conversion on drying ([2]; oven at 40° C. (ambient pressure), approximately 18 hours): converted to crystalline form 4
- form after drying ([2]; under vacuum at ambient temperature for 2 hours): crystalline form 3 remained also
SMILES: Cc1ccc(S(=O)(=O)O)cc1.NC[C@@H](C(=O)Nc1ccc2cnccc2c1)c1ccc(CO)cc1 [crystalline form 3, alpha-(aminomethyl)-4-(hydroxymethyl)-N-6-isoquinolinyl-(S)-benzeneacetamide mono-tosylate salt]

- Enthalpy (TG/DSC thermal analysis; listed as Form 4, mono-tosylate salt): 148.3 J/g and 126.6 J/g
SMILES: Cc1ccc(S(=O)(=O)O)cc1.NC[C@@H](C(=O)Nc1ccc2cnccc2c1)c1ccc(CO)cc1 [crystalline form 4, alpha-(aminomethyl)-4-(hydroxymethyl)-N-6-isoquinolinyl-(S)-benzeneacetamide mono-tosylate salt]
- crystalline form found by XRPD after 7 day stability study [3]: converted into a new crystalline form: crystalline form 5

- form after drying of the recovered solids ([1]; dried at 40° C. for 2 hours): retained on drying
- Enthalpy (TG/DSC thermal analysis; [5]): 165.0 J/g
- Onset Temperature (TG/DSC thermal analysis; [5]): 196.2 °C
- Signal Temperature (TG/DSC thermal analysis; [5]): 201.5 °C
- stability of the form (conclusion from thermal and NMR analyses) (TG/DSC thermal analysis; no loss in mass on heating prior to melting/decomposition): stable anhydrous form
SMILES: Cc1ccc(S(=O)(=O)O)cc1.NC[C@@H](C(=O)Nc1ccc2cnccc2c1)c1ccc(CO)cc1 [crystalline form 6, alpha-(aminomethyl)-4-(hydroxymethyl)-N-6-isoquinolinyl-(S)-benzeneacetamide mono-tosylate salt]
